Data reported in patent US8299022B2, “Analogs of ghrelin substituted at the N-terminal” (IPSEN Pharma S.A.S., priority 2006, dated 2012).
Square brackets hold non-standard residues; d marks the D form. Peptide text beside a SMILES is read from it. * marks the point of attachment. Octanoyl = CCCCCCCC(=O)*; Aib = CC(C)(N)C(=O)O; Inp = O=C(O)C1CCNCC1

Assay: Rat plasma ½ life (stability in plasma in a rat model)
Format: in vitro ADME
Procedure: A selection of the preferred embodiments listed above was analyzed to determine stability, i.e. ½ life in plasma in a rat model using techniques known to those skilled in the art.

CCCCCCCC(=O)OC[C@H](NC(=O)[C@H](CCCCN)NC(=O)[C@H](CCCNC(=N)N)NC(=O)[C@H](CCC(N)=O)NC(=O)[C@H](CCC(N)=O)NC(=O)[C@@H](NC(=O)[C@H](CCCNC(=N)N)NC(=O)[C@H](CCC(N)=O)NC(=O)[C@H](Cc1c[nH]cn1)NC(=O)[C@H](CCC(=O)O)NC(=O)[C@@H]1CCCN1C(=O)[C@H](CO)NC(=O)[C@H](CC(C)C)NC(=O)[C@H](Cc1ccccc1)NC(=O)[C@H](COC(=O)CCCCCCC)NC(=O)C(C)(C)NC(=O)C1CCNCC1)C(C)C)C(=O)N[C@@H](CO)C(=O)N[C@@H](CCCCN)C(=O)N[C@@H](CCCCN)C(=O)N1CCC[C@H]1C(=O)N1CCC[C@H]1C(=O)N[C@@H](C)C(=O)N[C@@H](CCCCN)C(=O)N[C@@H](CC(C)C)C(=O)N[C@@H](CCC(N)=O)C(=O)N1CCC[C@H]1C(=O)N[C@@H](CCCNC(=N)N)C(N)=O [Example 10, (Inp^1, Aib^2, Ser(n-octanoyl)^17)hGhrelin(1-28)-NH2] and CCCCCCCC(=O)OC[C@H](NC(=O)[C@H](CO)NC(=O)C1CCNCC1)C(=O)N[C@@H](Cc1ccccc1)C(=O)N[C@@H](CC(C)C)C(=O)N[C@@H](CO)C(=O)N1CCC[C@H]1C(=O)N[C@@H](CCC(=O)O)C(=O)N[C@@H](Cc1c[nH]cn1)C(=O)N[C@@H](CCC(N)=O)C(=O)N[C@@H](CCCNC(=N)N)C(=O)N[C@H](C(=O)N[C@@H](CCC(N)=O)C(=O)N[C@@H](CCC(N)=O)C(=O)N[C@@H](CCCNC(=N)N)C(=O)N[C@@H](CCCCN)C(=O)N[C@@H](COC(=O)CCCCCCC)C(=O)N[C@@H](CO)C(=O)N[C@@H](CCCCN)C(=O)N[C@@H](CCCCN)C(=O)N1CCC[C@H]1C(=O)N1CCC[C@H]1C(=O)N[C@@H](C)C(=O)N[C@@H](CCCCN)C(=O)N[C@@H](CC(C)C)C(=O)N[C@@H](CCC(N)=O)C(=O)N1CCC[C@H]1C(=O)N[C@@H](CCCNC(=N)N)C(N)=O)C(C)C [Example 11, (Inp^1, Ser(n-octanoyl)^17)hGhrelin(1-28)-NH2] are within 1.5-fold of each other in “Rat Plasma ½ life” value: 0.6 h for the first, 0.7 h for the second.

CCCCCCCC(=O)OC[C@H](NC(=O)C(C)(C)NC(=O)C1CCNCC1)C(=O)N[C@@H](Cc1ccccc1)C(=O)N[C@@H](CC(C)C)C(=O)N[C@@H](CO)C(=O)N1CCC[C@H]1C(=O)N[C@@H](CCC(=O)O)C(=O)N[C@@H](Cc1c[nH]cn1)C(=O)NC(C)(C)C(=O)N[C@@H](CCCNC(=N)N)C(=O)N[C@H](C(=O)N[C@@H](CCC(N)=O)C(=O)N[C@@H](CCC(N)=O)C(=O)N[C@@H](CCCNC(=N)N)C(=O)N[C@@H](CCCCN)C(=O)N[C@@H](CCC(=O)O)C(=O)N[C@@H](CO)C(=O)N[C@@H](CCCCN)C(=O)N[C@@H](CCCCN)C(=O)N1CCC[C@H]1C(=O)N1CCC[C@H]1C(=O)N[C@@H](C)C(=O)N[C@@H](CCCCN)C(=O)N[C@@H](CC(C)C)C(=O)N[C@@H](CCC(N)=O)C(=O)N1CCC[C@H]1C(=O)N[C@@H](CCCNC(=N)N)C(N)=O)C(C)C [Example 8, (Inp^1, Aib^2, 10)hGhrelin(1-28)-NH2] and CCCCCCCC(=O)OC[C@H](NC(=O)C(C)(C)NC(=O)C1CCNCC1)C(=O)N[C@@H](Cc1ccccc1)C(=O)N[C@@H](CC(C)C)C(=O)N[C@@H](CO)C(=O)N1CCC[C@H]1C(=O)NC(C)(C)C(=O)N[C@@H](Cc1c[nH]cn1)C(=O)N[C@@H](CCC(N)=O)C(=O)N[C@@H](CCCNC(=N)N)C(=O)N[C@H](C(=O)N[C@@H](CCC(N)=O)C(=O)N[C@@H](CCC(N)=O)C(=O)N[C@@H](CCCNC(=N)N)C(=O)N[C@@H](CCCCN)C(=O)N[C@@H](CCC(=O)O)C(=O)N[C@@H](CO)C(=O)N[C@@H](CCCCN)C(=O)N[C@@H](CCCCN)C(=O)N1CCC[C@H]1C(=O)N1CCC[C@H]1C(=O)N[C@@H](C)C(=O)N[C@@H](CCCCN)C(=O)N[C@@H](CC(C)C)C(=O)N[C@@H](CCC(N)=O)C(=O)N1CCC[C@H]1C(=O)N[C@@H](CCCNC(=N)N)C(N)=O)C(C)C [Example 9, (Inp^1, Aib^2, 8)hGhrelin(1-28)-NH2] are the same in “Rat Plasma ½ life” value: 1.2 h for the first, 1.2 h for the second.

Going from CCCCCCCC(=O)OC[C@H](NC(=O)[C@H](CCCCN)NC(=O)[C@H](CCCNC(=N)N)NC(=O)[C@H](CCC(N)=O)NC(=O)[C@H](CCC(N)=O)NC(=O)[C@@H](NC(=O)[C@H](CCCNC(=N)N)NC(=O)[C@H](CCC(N)=O)NC(=O)[C@H](Cc1c[nH]cn1)NC(=O)C(C)(C)NC(=O)[C@@H]1CCCN1C(=O)[C@H](CO)NC(=O)[C@H](CC(C)C)NC(=O)[C@H](Cc1ccccc1)NC(=O)[C@H](COC(=O)CCCCCCC)NC(=O)C(C)(C)NC(=O)C1CCNCC1)C(C)C)C(=O)N[C@@H](CO)C(=O)N[C@@H](CCCCN)C(=O)N[C@@H](CCCCN)C(=O)N1CCC[C@H]1C(=O)N1CCC[C@H]1C(=O)N[C@@H](C)C(=O)N[C@@H](CCCCN)C(=O)N[C@@H](CC(C)C)C(=O)N[C@@H](CCC(N)=O)C(=O)N1CCC[C@H]1C(=O)N[C@@H](CCCNC(=N)N)C(N)=O [Example 12, (Inp^1, Aib^2,8, Ser(n-octanoyl)^17)hGhrelin(1-28)-NH2] (H-[Inp][Aib]S(Octanoyl)FLSP[Aib]HQRVQQRKS(Octanoyl)SKKPPAKLQPR-NH2; N-terminus assumed) to CCCCCCCC(=O)OC[C@H](NC(=O)C(C)(C)NC(=O)C1CCNCC1)C(=O)N[C@@H](Cc1ccccc1)C(=O)N[C@@H](CC(C)C)C(=O)N[C@@H](CO)C(=O)N1CCC[C@H]1C(=O)N[C@@H](CCC(=O)O)C(=O)N[C@@H](Cc1c[nH]cn1)C(=O)N[C@@H](CCC(N)=O)C(=O)N[C@@H](CCCNC(=N)N)C(=O)N[C@H](C(=O)N[C@@H](CCC(N)=O)C(=O)N[C@@H](CCC(N)=O)C(=O)N[C@@H](CCCNC(=N)N)C(=O)N[C@@H](CCCCN)C(=O)N[C@@H](CCC(=O)O)C(=O)N[C@@H](CO)C(=O)N[C@@H](CCCCN)C(=O)N[C@@H](CCCCN)C(=O)N1CCC[C@H]1C(=O)N1CCC[C@H]1C(=O)N[C@@H](C)C(=O)N[C@@H](CCCCN)C(=O)N[C@@H](CC(C)C)C(=O)N[C@@H](CCC(N)=O)C(=O)N1CCC[C@H]1C(=O)N[C@@H](CCCNC(=N)N)C(N)=O)C(C)C [Example 6, (Inp^1, Aib^2)hGhrelin(1-28)-NH2], the “Rat Plasma ½ life” value rises from 0.7 h to 1.4 h (2-fold).

CCCCCCCC(=O)OC[C@H](NC(=O)[C@H](CO)NC(=O)C1CCNCC1)C(=O)N[C@@H](Cc1ccccc1)C(=O)N[C@@H](CC(C)C)C(=O)N[C@@H](CO)C(=O)N1CCC[C@H]1C(=O)N[C@@H](CCC(=O)O)C(=O)N[C@@H](Cc1c[nH]cn1)C(=O)N[C@@H](CCC(N)=O)C(=O)N[C@@H](CCCNC(=N)N)C(=O)N[C@H](C(=O)N[C@@H](CCC(N)=O)C(=O)N[C@@H](CCC(N)=O)C(=O)N[C@@H](CCCNC(=N)N)C(=O)N[C@@H](CCCCN)C(=O)N[C@@H](CCC(=O)O)C(=O)N[C@@H](CO)C(=O)N[C@@H](CCCCN)C(=O)N[C@@H](CCCCN)C(=O)N1CCC[C@H]1C(=O)N1CCC[C@H]1C(=O)N[C@@H](C)C(=O)N[C@@H](CCCCN)C(=O)N[C@@H](CC(C)C)C(=O)N[C@@H](CCC(N)=O)C(=O)N1CCC[C@H]1C(=O)N[C@@H](CCCNC(=N)N)C(N)=O)C(C)C [Example 5, (Inp^1)hGhrelin(1-28)-NH2] and CCCCCCNC(=O)CC[C@H](NC(=O)C(C)(C)NC(=O)C1CCNCC1)C(=O)N[C@@H](Cc1ccccc1)C(=O)N[C@@H](CC(C)C)C(=O)N[C@@H](CO)C(=O)N1CCC[C@H]1C(=O)N[C@@H](CCC(=O)O)C(=O)N[C@@H](Cc1c[nH]cn1)C(=O)N[C@@H](CCC(N)=O)C(=O)N[C@@H](CCCNC(=N)N)C(=O)N[C@H](C(=O)N[C@@H](CCC(N)=O)C(=O)N[C@@H](CCC(N)=O)C(=O)N[C@@H](CCCNC(=N)N)C(=O)N[C@@H](CCCCN)C(=O)N[C@@H](CCC(=O)O)C(=O)N[C@@H](CO)C(=O)N[C@@H](CCCCN)C(=O)N[C@@H](CCCCN)C(=O)N1CCC[C@H]1C(=O)N1CCC[C@H]1C(=O)N[C@@H](C)C(=O)N[C@@H](CCCCN)C(=O)N[C@@H](CC(C)C)C(=O)N[C@@H](CCC(N)=O)C(=O)N1CCC[C@H]1C(=O)N[C@@H](CCCNC(=N)N)C(N)=O)C(C)C [Example 7, (Inp^1, Aib^2, Glu(NH-hexyl)^3)hGhrelin(1-28)-NH2] are within 1.5-fold of each other in “Rat Plasma ½ life” value: 6.2 h for the first, 6.7 h for the second.

For CCCCCCNC(=O)CC[C@H](NC(=O)C(C)(C)NC(=O)C1(N)CCNCC1)C(=O)N[C@@H](Cc1ccccc1)C(=O)N[C@@H](CC(C)C)C(=O)N[C@@H](CO)C(=O)N1CCC[C@H]1C(=O)N[C@@H](CCC(=O)O)C(=O)N[C@@H](Cc1c[nH]cn1)C(=O)NC(C)(C)C(=O)N[C@@H](CCCNC(=N)N)C(=O)N[C@H](C(=O)N[C@@H](CCC(N)=O)C(=O)N[C@@H](CCC(N)=O)C(=O)N[C@@H](CCCNC(=N)N)C(=O)N[C@@H](CCCCN)C(=O)N[C@@H](CCC(=O)O)C(=O)N[C@@H](CO)C(=O)N[C@@H](CCCCN)C(=O)N[C@@H](CCCCN)C(=O)N1CCC[C@H]1C(=O)N1CCC[C@H]1C(=O)N[C@@H](C)C(=O)N[C@@H](CCCCN)C(=O)N[C@@H](CC(C)C)C(=O)N[C@@H](CCC(N)=O)C(=O)N1CCC[C@H]1C(=O)N[C@@H](CCCNC(=N)N)C(N)=O)C(C)C [Example 4, (1-Apc^1, Aib^2, 10, Glu(NH-hexyl)^3)-hGhrelin(1-28)-NH2], the “Rat Plasma ½ life” value was 10.0 h.
